Assay results published in US20050009812A1, “Remedies for stress diseases comprising mitochondrial benzodiazepine receptor antagonists” (priority 2001, published 2005).

Columns and labels:
[1] = target: T1, MBR (Rattus norvegicus, UniProt P16257); experiment: Receptor binding: [3H]PK11195 binding to rat brain membrane preparation; parameters: The brains without cerebellum were homogenized in ice-cold 50 mmol/L Tris-HCl buffer (pH7.4); from tissue; host or cells: male Wistar rat brain without cerebellum, crude membrane pellet; conditions: competition with [3H]PK11195 1 nmol/L, Cheng & Prusoff
Description: Experiment 1: Receptor Binding
The affinity of the compound to MBR was determined using rat brain membrane preparation. Male Wistar rats were decapitated. After extirpation of the brain, cerebellum was removed. The brains without cerebellum were homogenized in ice-cold 50 mmol/L Tris-HCl buffer (pH7.4). The homogenate was centrifuged at 12,000 g for 20 min (4° C.), then supernatant was discarded. The residual pellet was washed in the same buffer. The pellet resuspended in 50 mmol/L Tris-HCl buffer (pH7.4) and adjusted to about 1 mg/mL was used as the rat brain membrane preparation for binding assay.
To determine the amount of non-specific binding, 20 μmol/L of PK11195 was added in place of DMSO and incubate for 1 h. The reaction was terminated by rapid filtration on GF/B filter soaked with 0.3% polyethyleneimine using cell harvester, then the filter was washed twice with 50 mmol/L Tris-HCl buffer (pH7.4). After dried in the oven, the radioactivity on the filer was measured by liquid scintillation counter. The data were analyzed using analysis soft KELL (Ver.6, BIOSOFT).
To determine the amount of non-specific binding, 20 μmol/L of PK11195 was added in place of DMSO. And to determine the affinity of the invention, 10 pmol/L to 1 μmol/L of the compound dissolved in DMSO was added in place of DMSO. The reaction was terminated as above described, then radioactivity on the filer was measured by liquid scintillation counter. […] The inhibitory constant (Ki value) was derived according to the equation of Cheng & Prusoff (Biochem. Pharmacol., 22, 3099-3108, 1973).

[2] = system: rat adrenocortical mitochondria; experiment: Determination of pregnenolone in rat adrenocortical mitochondria; format: biochemical; conditions: for pregnenolone content relative to DMSO treated group: final concentration of the compound 1 μmol/L; for Amount of pregnenolone production (%): 10 μmol/L, DMSO assumed 100, n=5; for MBR agonist or antagonist as judged by effect on pregnenolone production: compared with DMSO treated group
[3] = target: T1, MBR; experiment: MBR antagonist activity: FGIN1-27-stimulated pregnenolone production in rat adrenocortical mitochondria; format: biochemical; conditions: FGIN1-27 1 nmol/L; MBR antagonist 0.1 pmol/L to 1 μmol/L; FIGS. 1 and 2
Description: Horizontal axis represents the concentrations of the compound.

[4] = system: stress-loaded male Wistar rats; experiment: Anti-stress effect: number of fecal pellets in psychological (water aversive) stress model; format: in vivo, rat; conditions: for number of fecal pellets: p.o., male Wistar rats, psychological (water aversive) stress, counted 1 h after start of stress loading, mean ± spread; for number of fecal pellets / effect on stress-induced increase in the number of fecal pellets: n=10/group; for effect on number of fecal pellets vs vehicle (significance, all doses): all tested p.o. doses vs vehicle, stress-loaded male Wistar rats; for effect on stress-induced increase in the number of fecal pellets: oral administration 30 min before stress loading, counted after 1 h
Description: Psychological stress was loaded to male Wistar rats (Brain Res., 641, 21-28 (1994)). Platform was located in the center of the container and water was collected to 10 cm in height. Thirty min after oral administration of vehicle or the compound, stress loading was started. One hour after, number of fecal pellets were counted (n=10/group). The rats without administration and stress-loading rarely defecated in 1 h.

Compound | Ki [1] [nM] | number of fecal pellets ([4]; 3 mg/kg) | number of fecal pellets ([4]; 30 mg/kg) | Amount of pregnenolone production (%) [2] [%] | MBR agonist or antagonist as judged by effect on pregnenolone production [2] | effect on stress-induced increase in the number of fecal pellets [4] | also measured
O=C(NCc1cc(F)ccc1OCc1ccccc1)c1cccc(Cl)c1Cl [1(110), N-(2-benzyloxy-5-fluorobenzyl)-2,3-dichlorobenzamide] | 0.22 | – | – | – | – | – | –
Fc1cccc(Cl)c1Cn1nnnc1-c1ccccc1C(F)(F)F [2(14), 1-(2-chloro-6-fluorobenzyl)-5-(2-trifluoromethylphenyl)-1H-1,2,3,4-tetrazole] | 3.3 | 6.6 ± 0.76 | 5.1 ± 0.78 | – | – | – | pregnenolone content relative to DMSO treated group [2]: 0.98 times; antagonistic effect on FGIN1-27-stimulated pregnenolone production [3]: antagonize the steroid production stimulated by MBR agonist; number of fecal pellets ([4]; 0.3 mg/kg): 6.1 ± 0.82
O=C(NCc1ccc(F)cc1C(F)(F)F)c1cccc(Cl)c1Cl [1(16), N-(4-fluoro-2-trifluoromethylbenzyl)-2,3-dichlorobenzamide] | 0.19 | – | – | – | – | – | –
Clc1cccc(Cc2nnnn2-c2cccc(Cl)c2Cl)c1Cl [2(74), 5-(2,3-dichlorobenzyl)-1-(2,3-dichlorophenyl)-1H-1,2,3,4-tetrazole] | 0.16 | – | – | – | – | – | –
Clc1ccc(Cl)c(Cc2nnnn2-c2cccc(Cl)c2Cl)c1 [2(71), 5-(2,5-dichlorobenzyl)-1-(2,3-dichlorophenyl)-1H-1,2,3,4-tetrazole] | 0.08 | – | – | – | – | – | –
Clc1cccc(-c2nnnn2Cc2cc(Cl)ccc2OCc2ccccc2)c1 [2(105), 1-(2-benzyloxy-5-chlorobenzyl)-5-(3-chlorophenyl)-1H-1,2,3,4-tetrazole] | 0.73 | – | – | – | – | – | –
CCCN(CCC)C(=O)c1c(-c2ccc(Cl)cc2)nc2cc(Cl)cc(Cl)n12 [CB34, 5,7-dichloro-2-(4-chlorophenyl)-3-dipropylaminocarbonylimidazo[1,2-a]pyridine] | – | 10.2 ± 0.96 | 8.6 ± 1.00 | 131.36 ± 5.38 | MBR agonists which increase pregnenolone production | did not produce significant effects | number of fecal pellets ([4]; 10 mg/kg): 7.6 ± 0.93; effect on number of fecal pellets vs vehicle (significance, all doses) [4]: No significant effect in any dose.
CCC(C)N(C)C(=O)c1cc2ccccc2c(-c2ccccc2Cl)n1 (stereo not shown) [PK11195, 1-(2-chlorophenyl)-N-methyl-N-(1-methylpropyl)-3-isoquinolinecarboxamide] | – | 6.6 ± 0.97 | 5.5 ± 0.81 | 101.82 ± 1.64 | MBR antagonists which hardly effect on it | produced significant effects | antagonistic effect on FGIN1-27-stimulated pregnenolone production [3]: antagonize the steroid production stimulated by MBR agonist; number of fecal pellets ([4]; 0.3 mg/kg): 6.4 ± 0.76
CCN(Cc1ccccc1)C(=O)Cn1c(=O)n(C)c2cnc(-c3ccccc3)nc21 [AC-5216, N-benzyl-N-ethyl-2-(7-methyl-8-oxo-2-phenyl-7,8-dihydro-9H-purin-9-yl)acetamide] | – | 7.5 ± 0.63 | 9.3 ± 0.94 | 122.65 ± 7.56 | MBR agonists which increase pregnenolone production | did not show an effect | MBR agonist or antagonist as judged by effect on pregnenolone production ([2]; listed as N-benzyl-N-ethyl-2-(7-methyl-8-oxo-2-phenyl-7,8-dihydro-9H-purin-9-yl)acetamide): MBR antagonist; number of fecal pellets ([4]; 0.3 mg/kg): 9.6 ± 0.74; effect on number of fecal pellets vs vehicle (significance, all doses) [4]: No significant effect in any dose.; effect on stress-induced increase in the number of fecal pellets ([4]; listed as AC-5261): did not produce significant effects
CN1C(=O)CN=C(c2ccc(Cl)cc2)c2cc(Cl)ccc21 [Ro5-4864, 7-chloro-5-(4-chlorophenyl)-1-methyl-2-oxo-2,3-dihydro-1H-benzodiazepine] | – | 8.9 ± 1.16 | 8.6 ± 0.91 | 123.59 ± 5.41 | MBR agonists which increase pregnenolone production | did not produce significant effects | number of fecal pellets ([4]; 10 mg/kg): 9.2 ± 0.98; effect on number of fecal pellets vs vehicle (significance, all doses) [4]: No significant effect in any dose.
CCCCCCN(CCCCCC)C(=O)Cc1c(-c2ccc(F)cc2)[nH]c2ccccc12 [FGIN1-27, 2-[2-(4-fluorophenyl)-1H-indole-3-yl]-N,N-dihexylacetamide] | – | – | – | – | MBR agonists which increase pregnenolone production | – | pregnenolone content relative to DMSO treated group [2]: 1.37 times
